In patent US20210276987A1, “PHARMACEUTICAL AGENTS FOR USE IN SMOKING AND TOBACCO CESSATION” (Washington State University, priority 2018, published 2021):
Structures can show the parent of a compound that is named as a salt. Where two headings read alike, the source gives them in different places.

What was measured:
UGT2B10 = target: T1, UGT2B10 (Homo sapiens, UniProt P36537); assay: biochemical
T1 sequence (P36537 24-528): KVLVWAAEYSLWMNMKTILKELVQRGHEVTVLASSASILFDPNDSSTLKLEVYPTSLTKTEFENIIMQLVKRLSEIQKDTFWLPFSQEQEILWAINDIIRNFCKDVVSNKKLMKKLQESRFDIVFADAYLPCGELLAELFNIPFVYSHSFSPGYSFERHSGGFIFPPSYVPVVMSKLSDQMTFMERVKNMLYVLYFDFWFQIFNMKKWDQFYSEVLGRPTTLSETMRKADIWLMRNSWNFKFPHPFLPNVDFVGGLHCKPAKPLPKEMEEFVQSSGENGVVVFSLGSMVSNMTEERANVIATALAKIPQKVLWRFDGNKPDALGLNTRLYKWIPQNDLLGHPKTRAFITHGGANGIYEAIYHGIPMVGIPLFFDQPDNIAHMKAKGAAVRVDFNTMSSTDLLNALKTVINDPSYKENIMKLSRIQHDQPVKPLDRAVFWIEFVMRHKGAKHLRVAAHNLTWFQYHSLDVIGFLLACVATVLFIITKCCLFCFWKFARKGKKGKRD
Description: Initial screening assays were performed as described above for the CYP assays using 1 μM or 10 μM of each of the NAs. The inhibitory effects of each agent against UGT2B10 was performed using the known UGT2B10-specific probe substrate, nicotine, in pooled human liver microsomes. […] Pre-incubations containing 500 μM nicotine and 1 or 10 μM NA were subsequently performed at 37° C. in 50 mM Tris-HCl buffer (pH 7.5, in a final volume of 50 μL) and 10 mM MgCl2 for 5 minutes.

CYP2A6 [1] = target: T2, CYP2A6 (Homo sapiens, UniProt P11509); assay: biochemical
T2 sequence (P11509 1-494): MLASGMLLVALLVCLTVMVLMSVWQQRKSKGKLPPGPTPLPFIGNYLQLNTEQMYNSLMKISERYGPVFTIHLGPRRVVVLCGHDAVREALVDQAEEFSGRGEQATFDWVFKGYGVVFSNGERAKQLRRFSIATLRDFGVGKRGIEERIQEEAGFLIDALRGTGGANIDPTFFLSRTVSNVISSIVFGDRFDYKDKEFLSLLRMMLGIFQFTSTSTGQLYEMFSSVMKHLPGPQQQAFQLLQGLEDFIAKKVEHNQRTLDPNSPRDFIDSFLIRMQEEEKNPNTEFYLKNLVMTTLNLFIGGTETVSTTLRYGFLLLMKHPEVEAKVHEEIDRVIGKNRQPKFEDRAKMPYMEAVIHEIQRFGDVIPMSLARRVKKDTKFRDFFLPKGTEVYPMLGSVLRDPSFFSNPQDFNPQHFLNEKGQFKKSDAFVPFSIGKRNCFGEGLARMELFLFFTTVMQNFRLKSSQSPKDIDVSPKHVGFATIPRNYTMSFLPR

CYP2B6 = target: T3, CYP2B6 (Homo sapiens, UniProt P20813); conditions: Table 8, thiophene and furan analogues
T3 sequence (P20813 1-491): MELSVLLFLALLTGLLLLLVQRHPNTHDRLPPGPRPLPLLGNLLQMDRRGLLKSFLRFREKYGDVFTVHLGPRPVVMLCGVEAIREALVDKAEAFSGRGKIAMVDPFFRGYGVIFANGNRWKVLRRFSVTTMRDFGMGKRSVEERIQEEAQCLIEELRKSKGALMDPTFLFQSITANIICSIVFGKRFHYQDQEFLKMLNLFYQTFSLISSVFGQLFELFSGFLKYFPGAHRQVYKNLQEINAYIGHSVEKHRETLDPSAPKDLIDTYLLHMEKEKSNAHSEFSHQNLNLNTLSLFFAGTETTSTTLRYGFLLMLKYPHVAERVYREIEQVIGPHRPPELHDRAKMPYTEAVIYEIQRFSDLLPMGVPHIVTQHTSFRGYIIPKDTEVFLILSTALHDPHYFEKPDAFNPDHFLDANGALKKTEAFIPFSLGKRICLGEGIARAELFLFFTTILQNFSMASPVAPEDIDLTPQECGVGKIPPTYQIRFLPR

CYP2C8 = target: T4, CYP2C8 (Homo sapiens, UniProt P10632); conditions: Table 8, thiophene and furan analogues
T4 sequence (P10632 1-490): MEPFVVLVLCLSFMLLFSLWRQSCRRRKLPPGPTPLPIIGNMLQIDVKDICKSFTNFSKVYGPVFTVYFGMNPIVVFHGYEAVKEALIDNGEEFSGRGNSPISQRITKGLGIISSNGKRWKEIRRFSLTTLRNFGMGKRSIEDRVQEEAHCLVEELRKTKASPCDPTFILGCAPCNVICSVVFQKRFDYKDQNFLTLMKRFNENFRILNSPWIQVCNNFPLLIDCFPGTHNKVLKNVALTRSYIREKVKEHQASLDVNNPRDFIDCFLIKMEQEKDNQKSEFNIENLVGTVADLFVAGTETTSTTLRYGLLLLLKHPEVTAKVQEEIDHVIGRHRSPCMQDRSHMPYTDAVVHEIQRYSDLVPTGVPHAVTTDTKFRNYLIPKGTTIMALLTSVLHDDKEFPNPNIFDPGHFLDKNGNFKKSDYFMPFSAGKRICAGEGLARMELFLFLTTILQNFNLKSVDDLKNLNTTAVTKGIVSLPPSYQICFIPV

CYP2E1 = CYP2E1 (Homo sapiens, UniProt P05181); conditions: Table 8, thiophene and furan analogues
Chain of CYP2E1 (P05181 whole entry): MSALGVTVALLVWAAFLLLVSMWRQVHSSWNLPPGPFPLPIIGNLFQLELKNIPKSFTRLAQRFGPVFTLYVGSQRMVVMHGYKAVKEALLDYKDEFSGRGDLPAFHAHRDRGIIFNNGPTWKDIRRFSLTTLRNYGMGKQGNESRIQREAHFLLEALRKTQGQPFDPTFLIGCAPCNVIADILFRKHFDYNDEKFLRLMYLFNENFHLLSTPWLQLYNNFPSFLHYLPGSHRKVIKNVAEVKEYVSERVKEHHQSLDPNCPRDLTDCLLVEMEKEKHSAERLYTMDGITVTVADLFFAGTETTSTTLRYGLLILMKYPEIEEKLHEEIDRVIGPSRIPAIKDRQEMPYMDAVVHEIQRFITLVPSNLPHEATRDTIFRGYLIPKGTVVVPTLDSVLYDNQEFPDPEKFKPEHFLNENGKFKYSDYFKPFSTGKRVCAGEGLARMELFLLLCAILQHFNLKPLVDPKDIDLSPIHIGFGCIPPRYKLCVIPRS

CYP2C19 = CYP2C19 (Homo sapiens, UniProt P33261); assay: CYP2C19 inhibition assay, human liver microsomes, omeprazole probe (cocktail); conditions: Table 8, thiophene and furan analogues
Chain of CYP2C19 (P33261 whole entry): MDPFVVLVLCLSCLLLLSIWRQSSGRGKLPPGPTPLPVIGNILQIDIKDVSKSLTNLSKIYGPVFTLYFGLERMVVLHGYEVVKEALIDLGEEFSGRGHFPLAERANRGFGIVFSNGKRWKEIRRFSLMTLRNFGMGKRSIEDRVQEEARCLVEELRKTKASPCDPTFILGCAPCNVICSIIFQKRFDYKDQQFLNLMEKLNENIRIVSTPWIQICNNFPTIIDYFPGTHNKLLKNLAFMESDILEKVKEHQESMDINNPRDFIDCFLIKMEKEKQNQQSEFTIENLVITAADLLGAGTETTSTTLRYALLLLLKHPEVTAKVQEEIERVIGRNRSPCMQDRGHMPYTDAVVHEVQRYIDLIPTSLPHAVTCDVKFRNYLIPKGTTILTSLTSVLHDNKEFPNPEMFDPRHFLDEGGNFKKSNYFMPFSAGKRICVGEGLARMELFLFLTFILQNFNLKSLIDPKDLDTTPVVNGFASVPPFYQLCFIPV

CYP1A2 = target: T5, CYP1A2 (Homo sapiens, UniProt P05177); assay: CYP1A2 inhibition assay, human liver microsomes, phenacetin probe (cocktail); conditions: Table 8, thiophene and furan analogues
T5 sequence (P05177 1-516): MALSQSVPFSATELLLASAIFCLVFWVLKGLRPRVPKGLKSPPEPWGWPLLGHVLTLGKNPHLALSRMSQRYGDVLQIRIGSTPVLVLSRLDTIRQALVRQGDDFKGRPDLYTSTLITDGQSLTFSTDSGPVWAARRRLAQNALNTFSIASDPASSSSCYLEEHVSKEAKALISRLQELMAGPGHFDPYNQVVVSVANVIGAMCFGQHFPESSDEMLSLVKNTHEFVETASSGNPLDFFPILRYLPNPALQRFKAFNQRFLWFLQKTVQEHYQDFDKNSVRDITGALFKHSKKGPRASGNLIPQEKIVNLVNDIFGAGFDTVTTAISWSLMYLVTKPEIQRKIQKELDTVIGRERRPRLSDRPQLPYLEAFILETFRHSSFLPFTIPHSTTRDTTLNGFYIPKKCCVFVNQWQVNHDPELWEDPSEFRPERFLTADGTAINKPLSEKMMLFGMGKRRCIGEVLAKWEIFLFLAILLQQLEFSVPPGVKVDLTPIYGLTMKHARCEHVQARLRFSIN

in vitro = conditions: for half-life at 10 μM: human, microsomes; for T1/2 (min) in human liver microsomes / half-life (T1/2) in human liver microsomes: pH 7.4
Description: In vitro stability studies. […] Half-lives were calculated using the one-phase exponential decay equation (GraphPad).

CYP2D6 = CYP2D6 (Homo sapiens, UniProt P10635); assay: CYP2D6 inhibition assay, human liver microsomes, dextromethorphan probe (cocktail); conditions: Table 8, thiophene and furan analogues
Chain of CYP2D6 (P10635 whole entry): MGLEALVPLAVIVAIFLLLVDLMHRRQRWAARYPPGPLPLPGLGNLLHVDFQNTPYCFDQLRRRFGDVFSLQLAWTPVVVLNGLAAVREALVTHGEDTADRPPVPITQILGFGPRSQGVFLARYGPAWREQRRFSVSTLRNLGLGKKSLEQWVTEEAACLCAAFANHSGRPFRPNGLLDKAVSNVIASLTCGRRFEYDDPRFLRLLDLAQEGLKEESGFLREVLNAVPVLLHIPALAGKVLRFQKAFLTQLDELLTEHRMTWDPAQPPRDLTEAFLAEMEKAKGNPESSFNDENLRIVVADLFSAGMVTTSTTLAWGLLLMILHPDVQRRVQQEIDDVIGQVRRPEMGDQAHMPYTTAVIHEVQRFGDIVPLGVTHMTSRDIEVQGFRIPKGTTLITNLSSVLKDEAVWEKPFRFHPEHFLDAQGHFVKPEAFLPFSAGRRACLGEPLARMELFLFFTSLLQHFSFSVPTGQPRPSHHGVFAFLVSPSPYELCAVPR

CYP2C9 = CYP2C9 (Homo sapiens, UniProt P11712); assay: CYP2C9 inhibition assay, human liver microsomes, diclofenac probe (cocktail); conditions: Table 8, thiophene and furan analogues
Chain of CYP2C9 (P11712 whole entry): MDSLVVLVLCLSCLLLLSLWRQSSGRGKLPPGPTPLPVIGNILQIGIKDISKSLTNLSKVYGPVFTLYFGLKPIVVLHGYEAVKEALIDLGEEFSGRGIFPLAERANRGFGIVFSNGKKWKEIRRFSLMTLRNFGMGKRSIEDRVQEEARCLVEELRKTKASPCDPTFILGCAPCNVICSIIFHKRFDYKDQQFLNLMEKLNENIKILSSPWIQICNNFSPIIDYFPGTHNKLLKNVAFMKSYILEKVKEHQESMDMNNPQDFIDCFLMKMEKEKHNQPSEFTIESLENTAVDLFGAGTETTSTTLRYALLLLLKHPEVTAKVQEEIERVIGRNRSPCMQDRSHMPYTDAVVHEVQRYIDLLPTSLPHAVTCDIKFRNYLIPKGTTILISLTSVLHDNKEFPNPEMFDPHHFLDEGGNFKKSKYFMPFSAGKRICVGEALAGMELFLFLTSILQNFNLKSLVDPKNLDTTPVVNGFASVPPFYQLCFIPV

CYP2A6 [2] = target: T2, CYP2A6; conditions: both, human, microsomes, pH 7.4
CYP2A6 [3] = target: T2, CYP2A6; assay: in vitro; conditions: both, microsomes, pH 7.4, IC50 against CYP2A6 (μM)
[4] = IC50 against UGT2B10 (μM), Table 9, pooled human liver microsomes, nicotine 500 μM
[5] = IC50 against CYP2A6 (μM), Table 5, alkyne linker agents, pooled human liver microsomes, coumarin […]
[6] = pH 7.4, half-life (T1/2) in human liver microsomes
[7] = IC50 against CYP2A6, human liver microsomes

## NCC#Cc1cncc2ccccc12 [Compound A, 3-(isoquinolin-4-yl)prop-2-yn-1-amine Dihydrochloride]
UGT2B10; [4]
  IC50: 770 µM
CYP2A6 [1]; [5]
  IC50: > 10 µM

## NCc1ccc(-c2cnccc2Cl)s1 [Compound AB, (5-(4-chloropyridin-3-yl)thiophene-2-yl)methanamine Dihydrochloride]
CYP2B6
  IC50 ratio CYP2B6/CYP2A6: 7.4
CYP2C8
  IC50 ratio CYP2C8/CYP2A6: 227
CYP2E1
  IC50 ratio CYP2E1/CYP2A6: 47
CYP2C19
  IC50 ratio CYP2C19/CYP2A6: 6.8
CYP1A2
  IC50 ratio CYP1A2/CYP2A6: 17
In vitro; pH 7.4, T1/2 (min) in human liver microsomes
  half-life at 10 μM: 0.183 h
In vitro; [6]
  half-life at 10 μM: < 0.417 h
CYP2D6
  IC50 ratio CYP2D6/CYP2A6: 71
CYP2A6 [1]; IC50 against CYP2A6 (μM), Table 7, thiophene and furan nicotine analogues, pooled human liver microsomes, coumarin
  IC50: 0.11 µM
CYP2C9
  IC50 ratio CYP2C9/CYP2A6: 182

## NCc1ccc(-c2cnccc2-c2cccnc2)o1 [Compound AG, (5-([3,4′-Bipyridin]-3′-yl)furan-2-yl)methanamine Trihydrochloride]
In vitro; 10 μM
  T1/2 (min) in human liver microsomes: >120 min
In vitro; [6]
  half-life at 10 μM: > 1.5 h
CYP2A6 [2]
  IC50: 0.38 µM

## NCc1ccc(-c2cnccc2-c2ccncc2)s1 [Compound AJ, (5-([4,4′-Bipyridin]-3′-yl)thiophene-2-yl)methanamine Trihydrochloride]
In vitro; 10 μM
  T1/2 (min) in human liver microsomes: 32 min
CYP2A6 [2]
  IC50: 0.33 µM

## NCc1ccc(-c2cnccc2-c2cncnc2)o1 [Compound AK, (5-(4-(Pyrimidin-5-yl)pyridin-3-yl)furan-2-yl)methanamine Trihydrochloride]
In vitro; 10 μM
  T1/2 (min) in human liver microsomes: >120 min
In vitro; [6]
  half-life at 10 μM: > 1.5 h
CYP2A6 [2]
  IC50: 1.3 µM

## NCc1ccc(-c2cnccc2-c2cncnc2)s1 [Compound AL, (5-(4-(Pyrimidin-5-yl)pyridin-3-yl)thiophene-2-yl)methanamine Trihydrochloride]
In vitro; 10 μM
  T1/2 (min) in human liver microsomes: >120 min
In vitro; [6]
  half-life at 10 μM: > 1.5 h
CYP2A6 [2]
  IC50: 1.2 µM

## NCC#Cc1cnc2ccccc2c1 [Compound B, 3-(quinolin-3-yl)prop-2-yn-1-amine]
UGT2B10; [4]
  IC50: > 1000 µM
UGT2B10; IC50 against UGT2B10, little to no inhibition
  IC50: > 1000 µM
CYP2A6 [1]; [5]
  IC50: > 10 µM

## Cc1ccncc1C#CCN [Compound C, 3-(4-methylpyridin-3-yl)prop-2-yn-1-amine]
UGT2B10; IC50 against UGT2B10
  IC50: < 60 µM
UGT2B10; IC50 against UGT2B10 (μM)
  IC50: 58 µM
In vitro
  T1/2 (min) in human liver microsomes: 8.4 min
  half-life (T1/2) in human liver microsomes: less than 25 minutes
CYP2A6 [1]; IC50 against CYP2A6
  IC50: < 1 µM
CYP2A6 [2]
  IC50: 0.055 µM

## Cc1cncc(C#CCN)c1 [Compound D, 3-(5-methylpyridin-3-yl)prop-2-yn-1-amine]
UGT2B10; IC50 against UGT2B10
  IC50: > 1000 µM
UGT2B10; IC50 against UGT2B10 (μM)
  IC50: > 1000 µM
CYP2A6 [3]
  IC50: 10 µM

## Cc1ncccc1C#CCN [Compound F, 3-(2-methylpyridin-3-yl)prop-2-yn-1-amine]
UGT2B10; [4]
  IC50: 286 µM
CYP2A6 [1]; [5]
  IC50: > 10 µM

## CCc1ccncc1C#CCN [Compound H, 3-(4-ethylpyridin-3-yl)prop-2-yn-1-amine]
UGT2B10; IC50 against UGT2B10
  IC50: > 1000 µM
UGT2B10; IC50 against UGT2B10 (μM)
  IC50: > 1000 µM
In vitro
  T1/2 (min) in human liver microsomes: 9.8 min
  half-life (T1/2) in human liver microsomes: less than 25 minutes
CYP2A6 [1]; IC50 against CYP2A6
  IC50: < 1 µM
CYP2A6 [2]
  IC50: 0.83 µM

## NCC#Cc1cnccc1-c1ccco1 [Compound M, 3-(4-Furan-2-yl-pyridin-3-yl)-prop-2-ynylamine Dihydrochloride]
CYP2A6 [1]; [7]
  IC50: < 1 µM
CYP2A6 [2]
  IC50: 0.56 µM

## NCC#Cc1cnccc1-c1ccncc1 [Compound P, 3-([4,4′-Bipyridin]-3′-yl)prop-2-yn-1-amine Trihydrochloride]
In vitro; 10 μM
  T1/2 (min) in human liver microsomes: 36 min
CYP2A6 [1]; [7]
  IC50: < 10 µM
CYP2A6 [2]
  IC50: 3.6 µM

## NCC#Cc1cnccc1-c1cncnc1 [Compound Q, 3-(4-(Pyrimidin-5-yl)pyridin-3-yl)prop-2-yn-1-amine Trihydrochloride]
In vitro; 10 μM
  T1/2 (min) in human liver microsomes: >120 min
In vitro; [6]
  half-life at 10 μM: > 1.5 h
CYP2A6 [1]; [7]
  IC50: < 10 µM
CYP2A6 [2]
  IC50: 2.7 µM
